# According to US20250213528A1, “5-METHOXY-N,N-[…][…] THE TREATMENT OF ANXIETY” (GH RESEARCH IRELAND LIMITED, priority 2022, published 2025):
# Columns and labels:
# [1] = system: Salmonella typhimurium TA98, TA100, TA1535 and TA1537; experiment: Bacterial mutation test, Salmonella typhimurium; format: cell-based; conditions: up to 5000 μg/plate, absence and presence of rat liver S-9
# Description: (§1) These conditions included treatments at concentrations up to 5000 μg/plate (the maximum recommended concentration according to current regulatory guidelines), in the absence and in the presence of a rat liver metabolic activation system (S-9).
# [2] = system: Escherichia coli WP2 uvrA pKM101; experiment: Bacterial mutation test, Escherichia coli; format: cell-based; conditions: up to 5000 μg/plate, absence and presence of rat liver S-9
# Description: as §1
# [3] = Pharmacokinetics of 5-MeO-DMT and bufotenine after inhalation of 5-MeO-DMT; format: in vivo, human
# [4] = system: patients with postpartum depression (PPD); experiment: Clinical trial of inhaled 5-MeO-DMT in postpartum depression, one patient, IDR 6 mg then 12 mg; format: in vivo, human; conditions: n=1
# Text: Maternal functioning can, for instance, be assessed using the Barkin Index of Maternal Functioning (BIMF). This index was designed to measure functioning in the year after childbirth. The BIMF is a 20-item self-report measure of functioning. Each item is assigned a score between 0 and 6 so that the maximum total score is 120. The higher the score, the better maternal functioning is rated.
# The single-arm, open-label clinical trial will involve 15 adult female patients with clinically diagnosed postpartum depression (PPD).
# The second dose (12 mg) will only be administered if: • a. […] The 6 mg dose was safe and well-tolerated according to the investigator, • c. Any psychoactive effects (PsE) of the prior dose have subsided, and • d. Pre-dose vital parameters and forced expiratory volume in one second (FEV1) are in normal range, or if outside of the normal range, are not clinically significant according to the investigator. • 3. Similarly, a third dose (18 mg) will only be administered if: • a. […] The 12 mg dose was safe and well-tolerated according to the investigator, and • c. Any PsE of the prior dose have subsided, and • d. Pre-dose vital parameters and forced expiratory volume in one second (FEV1) are in normal range, or if outside of the normal range, are not clinically significant according to the investigator.
# The patients will be assessed for a peak psychedelic experience (based on a patient-scored visual analogue scale, the PE scale), sedation, and other endpoints after dosing. Follow-up visits are planned for Day 1, and Day 7 after the dosing day.
# The following criteria must be met by all patients considered for clinical trial participation: • 1. Is female and in the age range between 18 and 45 years (inclusive) at screening. • 2. Has a body mass index (BMI) in the range of 18.5 and 35 kg/m^2 (inclusive) at screening. • 3. Meets the trial criteria for PPD as assessed by a trial psychiatrist or registered psychologist: • a. Diagnosis of Major Depressive Disorder without psychotic features, confirmed by the Mini-International Neuropsychiatric Interview (MINI), with peri-partum onset that began no earlier than gestation and no later than the first 4 weeks postpartum. • b. Has a Montgomery-Åsberg Depression Rating Scale (MADRS) total score of equal to or greater than 28 at screening and pre-dose on Day 0. • 6. […] Patients must have a negative pregnancy test at screening and on the pre-test day (Day-1). • 5. Is willing to delay start of other antidepressant or anxiety medication until after the end of the trial at Day 7 and agrees to keep any psychotherapy unchanged during the trial.
# A potential patient who meets any of the following key exclusion criteria will be excluded from participation in this trial: • 1. Has, based on history, psychiatric assessment, and evaluation of the MINI, a current or prior diagnosis of bipolar disorder, a manic or hypomanic episode, a psychotic disorder, Major Depressive Disorder (MDD) or other mood disorder with psychotic features, obsessive compulsive disorder, post-traumatic stress disorder (PTSD), autism spectrum disorder, borderline personality disorder, schizophrenia, delusional disorder, paranoid personality disorder, schizoaffective disorder, clinically significant intellectual disability, or any other psychiatric comorbidity that renders the patient unsuitable for the trial according to the investigator's judgment. • 2. Has one or more first or second degree relatives with a current or previously diagnosed bipolar disorder, psychotic disorder or other mood disorder (including MDD) with psychotic features. • 3.
compound,measurement,setting,value
COc1ccc2[nH]cc(CCN(C)C)c2c1 [5-MeO-DMT],mutation induction,[1],did not induce mutation
same,mutation induction,[2],did not induce mutation
same,detectability in the plasma,"[3]; 3 hours after inhalation, whole dose range 6, 12, 18 mg",no longer detectable
same,pharmacokinetic measurements under uptitration,"[3]; dosing schemes relying on uptitration, compared with single doses",Substantially similar results
same,standard criteria for MADRS remission (MADRS total score equal or less than 10),[4],fulfilled
same,standard criteria for MADRS response (at least 50% improvement from baseline),[4],fulfilled
same,time to clinical remission after administration,[4],≤ 2 h
same,durability of clinical response,[4]; 5-MeO-DMT given on one day only,sustained over the 7-day follow-up period
same,Total MADRS Improvement,[4]; 2 hr,24
same,BPRS Tension Improvement,[4]; Day 1,5
same,Total MADRS Improvement,[4]; Day 1,29
same,Total MADRS Improvement,[4]; Day 7,28
same,"BIMF item 19 As time goes on, I am getting better at taking care of my baby, score","[4]; Day 7, Day 0 score 0",1
same,"BIMF item 13 I am taking good care of my physical needs, score","[4]; Day 7, Day 0 score 4",5
same,"BIMF item 5 I am able to relax and enjoy time with my baby, score","[4]; Day 7, Day 0 score 5",6
same,"BIMF item 9 I am getting enough encouragement from other people, score","[4]; Day 7, Day 0 score 5",6
same,"BIMF item 10 I trust my own feelings (instincts) when it comes to taking care of my baby, score","[4]; Day 7, Day 0 score 5",6
same,"BIMF item 17 I am able to take care of my baby and my other responsibilities, score","[4]; Day 7, Day 0 score 5",5
same,BIMF functional domain Adjustment score,"[4]; Day 7, Day 0 score 5, maximum possible 12",6
same,"BIMF item 3 I am comfortable with the way I've chosen to feed my baby, score","[4]; Day 7, Day 0 score 6",6
same,"BIMF item 6 There are people in my life that I can trust to care for my baby when I need a break, score","[4]; Day 7, Day 0 score 6",6
same,"BIMF item 8 I am getting enough adult interaction, score","[4]; Day 7, Day 0 score 6",6
same,"BIMF item 12 I am taking good care of my baby's physical needs, score","[4]; Day 7, Day 0 score 6",6
same,"BIMF item 14 I make good decisions about my baby's health and well being, score","[4]; Day 7, Day 0 score 6",6
same,"BIMF item 20 I am satisfied with the job I am doing as a new mother, score","[4]; Day 7, Day 0 score 6",5
same,BIMF functional domain Self Care score,"[4]; Day 7, Day 0 score 9, maximum possible 18",13
same,BIMF functional domain Infant Care score,"[4]; Day 7, Day 0 score 12, maximum possible 12",12
same,BIMF functional domain Mother-Child Interaction score,"[4]; Day 7, Day 0 score 15, maximum possible 18",17
same,BIMF functional domain Social Support score,"[4]; Day 7, Day 0 score 17, maximum possible 18",18
same,BIMF functional domain Management score,"[4]; Day 7, Day 0 score 28, maximum possible 36",33
same,BIMF functional domain Psychological Well-being score,"[4]; Day 7, Day 0 score 44, maximum possible 60",53
same,BIMF total score improvement,"[4]; Day 7, from 92 to 105 of possible 120",14%
same,"BIMF TOTAL, Δ (Day 7)",[4]; Day 7 vs Day 0,13
same,"BIMF item 3 I am comfortable with the way I've chosen to feed my baby, Δ (Day 7)",[4]; Day 7 vs Day 0,0
same,"BIMF item 5 I am able to relax and enjoy time with my baby, Δ (Day 7)",[4]; Day 7 vs Day 0,1
same,"BIMF item 6 There are people in my life that I can trust to care for my baby when I need a break, Δ (Day 7)",[4]; Day 7 vs Day 0,0
same,"BIMF item 8 I am getting enough adult interaction, Δ (Day 7)",[4]; Day 7 vs Day 0,0
same,"BIMF item 9 I am getting enough encouragement from other people, Δ (Day 7)",[4]; Day 7 vs Day 0,1
same,"BIMF item 10 I trust my own feelings (instincts) when it comes to taking care of my baby, Δ (Day 7)",[4]; Day 7 vs Day 0,1
same,"BIMF item 11 I take a little time each week to do something for myself, Δ (Day 7)",[4]; Day 7 vs Day 0,1
same,"BIMF item 12 I am taking good care of my baby's physical needs, Δ (Day 7)",[4]; Day 7 vs Day 0,0
same,"BIMF item 13 I am taking good care of my physical needs, Δ (Day 7)",[4]; Day 7 vs Day 0,1
same,"BIMF item 14 I make good decisions about my baby's health and well being, Δ (Day 7)",[4]; Day 7 vs Day 0,0
same,"BIMF item 17 I am able to take care of my baby and my other responsibilities, Δ (Day 7)",[4]; Day 7 vs Day 0,0
same,"BIMF item 19 As time goes on, I am getting better at taking care of my baby, Δ (Day 7)",[4]; Day 7 vs Day 0,1
same,"BIMF item 20 I am satisfied with the job I am doing as a new mother, Δ (Day 7)",[4]; Day 7 vs Day 0,−1
same,BPRS Tension Improvement,[4]; Discharge,5
CN(C)CCc1c[nH]c2ccc(O)cc12 [bufotenine],bufotenine blood concentration above LLOQ,"[3]; after inhaled 5-MeO-DMT, LLOQ 25 pg/ml",Only in few samples
same,bufotenine blood concentrations under uptitration,[3]; subjects receiving an uptitration scheme included,Substantially similar observations
